According to PMC9143880, “Improving Antimicrobial Activity and Physico-Chemical Properties by Isosteric Replacement of 2-Aminothiazole with 2-Aminooxazole” (Pharmaceuticals, 2022):
Converted amounts (≈) assume the structure as drawn. Like-named read-outs stand apart in the source and are kept apart here.

Tests used:
M. tuberculosis H37Rv = details: whole cell, cited from earlier work
[1] = system: Mycobacterium tuberculosis H37Ra ITM-M006710 (ATCC 9431); assay: Antimycobacterial MIC, microdilution broth / Alamar Blue (resazurin); type: cell-based; details: Mycobacterium tuberculosis
[2] = system: M. smegmatis DSM 43465 (ATCC 607); assay: Antimycobacterial MIC, microdilution broth / resazurin; type: cell-based; details: Mycolicibacterium smegmatis, read-out: MIC M. smegmatis
[3] = system: M. aurum DSM 43999 (ATCC 23366); assay: as above; type: cell-based; details: Mycolicibacterium aurum, read-out: MIC M. aurum
[4] = system: M. avium DSM 44156 (ATCC 25291); assay: as above; type: cell-based, Mycobacterium avium; details: Mycobacterium avium, read-out: MIC M. avium
[5] = system: M. kansasii DSM 44162 (ATCC 12478); assay: as above; type: cell-based; details: Mycobacterium kansasii, read-out: MIC M. kansasii
[6] = system: Mtb H37Rv CNCTC My 331/88 (ATCC 27294); assay: microbe, parasite or virus in culture; type: cell-based; details: Mycobacterium tuberculosis, read-out: MIC Mtb H37Rv
[7] = RP-UHPLC lipophilicity parameter log k’w; type: physicochemical
Procedure, shortened: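 log k’w from isocratic RP-UHPLC with an acetonitrile/water mobile phase, using 40, 45 and 50% acetonitrile for subtype I and 20, 30 and 40% for subtype II. A single run was made at each mobile-phase composition.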

HepG2 cells = assay: HepG2 cytotoxicity screening (CellTiter 96); type: cell-based, human
[8] = system: Mtb IZAK (MDR clinical isolate); assay: microbe, parasite or virus in culture; type: cell-based; details: Mycobacterium tuberculosis, read-out: MIC Mtb IZAK
[9] = system: Mtb MATI (MDR clinical isolate); assay: microbe, parasite or virus in culture; type: cell-based; details: Mycobacterium tuberculosis, read-out: MIC Mtb MATI
[10] = Kinetic water solubility (water-induced precipitation of DMSO stock, UHPLC); type: physicochemical; details: 18 °C, water
Excerpt: A low value of log P is often presumed to be related to increased water solubility, although this might not always be the case since log P is a measure of relative solubility of the compound in the lipophilic and hydrophilic solvents (at equilibrium). Therefore, to be sure, we tested whether the lowered log k’w (related to log P) of the oxazole derivatives would also translate to increased solubility in water in a few representative derivatives. The water solubility of selected compounds was assessed by the kinetic method based on water-induced precipitation of DMSO stock solutions of tested compounds due to reasons described by Azzali and colleagues.
Water solubility was investigated using the kinetic solubility method. The sample (1 mg) was dissolved in the smallest amount of DMSO needed, 25 or 50 μL for subtype I and subtype II compounds, respectively. The samples were mixed at 18 °C in a thermomixer (Thermomixer comfort, Eppendorf, Hamburg, Germany) for 1 h. After mixing, the samples were diluted with water to a concentration of 500 μM, and the precipitate was observed. The sample was filtered through a 0.22 μm filter and diluted to be evaluated by UHPLC. The log S parameter was calculated from the experimental solubility in molar concentration. The samples were measured using the same instrument, software, and column as used in the purity evaluation.

[11] = system: Staphylococcus aureus subsp. aureus CCM 4223 (ATCC 29213); assay: Antibacterial microdilution broth (EUCAST); type: cell-based; details: Staphylococcus aureus; 24h incubation; read-out: MIC SA
[12] = system: Staphylococcus aureus subsp. aureus (MRSA) CCM 4750 (ATCC 43300); assay: Antibacterial microdilution broth (EUCAST); type: cell-based; details: Staphylococcus aureus; 24h incubation; read-out: MIC MRSA
[13] = system: Staphylococcus epidermidis CCM 4418 (ATCC 12228); assay: Antibacterial microdilution broth (EUCAST); type: cell-based; details: Staphylococcus epidermidis; 24h incubation; read-out: MIC SE
[14] = system: Enterococcus faecalis CCM 4224 (ATCC 29212); assay: Antibacterial microdilution broth (EUCAST); type: cell-based; details: Enterococcus faecalis; 24h incubation; read-out: MIC EF
[15] = system: Escherichia coli CCM 3954 (ATCC 25922); assay: Antibacterial microdilution broth (EUCAST); type: cell-based; details: Escherichia coli; 24h incubation; read-out: MIC EC
[16] = system: Acinetobacter baumannii DSM 30007 (ATCC 19606); assay: Antibacterial microdilution broth (EUCAST); type: cell-based; details: Acinetobacter baumannii; 24h incubation; read-out: MIC AB
[17] = system: Pseudomonas aeruginosa CCM 3955 (ATCC 27853); assay: Antibacterial microdilution broth (EUCAST); type: cell-based; details: Pseudomonas aeruginosa; 72h incubation; read-out: MIC PA
[18] = system: Candida albicans CCM 8320 (ATCC 24433); assay: Antifungal microdilution broth (EUCAST); details: Candida albicans, 24 h, read-out: MIC CA
[19] = system: Candida krusei CCM 8271 (ATCC 6258); assay: Antifungal microdilution broth (EUCAST); details: Pichia kudriavzevii, 24 h, read-out: MIC CK
[20] = system: Candida parapsilosis CCM 8260 (ATCC 22019); assay: Antifungal microdilution broth (EUCAST); details: Lodderomyces parapsilosis, 24 h, read-out: MIC CP
[21] = system: Candida tropicalis CCM 8264 (ATCC 750); assay: Antifungal microdilution broth (EUCAST); details: Candida tropicalis, 24 h, read-out: MIC CT
[22] = system: Aspergillus fumigatus ATCC 204305; assay: Antifungal microdilution broth (EUCAST); details: Aspergillus fumigatus, ATCC204305, 24 h, read-out: MIC AF
[23] = system: Aspergillus flavus CCM 8363; assay: Antifungal microdilution broth (EUCAST); details: Aspergillus flavus, CCM8363, 24 h, read-out: MIC AFla
[24] = system: Lichtheimia corymbifera CCM 8077; assay: Antifungal microdilution broth (EUCAST); details: Lichtheimia corymbifera, CCM8077, 24 h, read-out: MIC LC
[25] = system: Trichophyton interdigitale CCM 8377 (ATCC 9533); assay: Antifungal microdilution broth (EUCAST); details: Trichophyton interdigitale, 72 h, read-out: MIC TI
[26] = 120 h, Middlebrook 7H9, resazurin after 120 h, read-out: Mtb H37Ra MIC

Q: With `O=C(Nc1nc(-c2ccc(F)cc2)cs1)c1cncc(Cl)n1` [A] as the compound, how does the MIC (M. tuberculosis H37Rv; recalculated to µM) read?
A: 2.3 µM

Q: And the MIC (M. tuberculosis H37Rv)?
A: 0.78 µg/mL

Q: With `O=C(Nc1nc(-c2ccccn2)cs1)c1ccncc1` [B] as the compound, how does the MIC (M. tuberculosis H37Rv) read?
A: 1.6 to 3.1 µM

Q: Which MIC [1, 26] does the source give for `O=C(O)c1cn(C2CC2)c2cc(N3CCNCC3)c(F)cc2c1=O` [CIP, ciprofloxacin, reference compound] here?
A: 0.25 µg/mL

Q: And the MIC ([2]; resazurin after 48 h)?
A: 0.125 µg/mL (≈ 0.377 µM)

Q: What about the MIC ([3]; resazurin after 72 h) of the same compound?
A: 0.0156 µg/mL (≈ 0.0472 µM)

Q: And the MIC ([4]; resazurin after 96 h)?
A: 0.25 to 0.5 µg/mL (≈ 0.754 to 1.51 µM)

Q: And the MIC ([5]; resazurin after 96 h)?
A: 0.25 µg/mL (≈ 0.754 µM)

Q: What about the MIC [6] of the same compound?
A: 0.2 µg/mL (≈ 0.604 µM)

Q: What does the source list for `O=C(Nc1ncco1)c1ccnc(Cl)c1` [Compound 6b]?
A: log k’w ([7]; RP-UHPLC, acetonitrile/water, log k extrapolated to 0% acetonitrile): 1.136; logkw ([7]; experimental lipophilicity parameter): 1.136; IC50 (HepG2 cells; Homo sapiens, HepG2, 24 h, 24 h incubation, CellTiter 96, * above highest tested concentration, ** limited by insolubility in medium): 664 µM; SI (HepG2 cells; SI = IC50 (µM) HepG2 / MICH37Ra (µM)): 47.5; MIC [1, 26]: 3.12 µg/mL; MIC ([1]; recalculated from µg/mL, read-out: MICH37Ra): 14 µM; MIC ([2]; 48 h): 6.25 µg/mL (≈ 27.9 µM); MIC ([3]; 72 h): 3.12 µg/mL (≈ 14 µM); MIC ([4]; 96 h): 3.12 µg/mL (≈ 14 µM); MIC ([5]; 96 h): 3.12 µg/mL (≈ 14 µM); MIC [6]: 6.25 µg/mL (≈ 27.9 µM); MIC [8]: 3.13 µg/mL (≈ 14 µM); MIC [9]: 3.13 µg/mL (≈ 14 µM); solubility ([10]; water (DMSO stock diluted with water), kinetic from dmso stock, read-out: solubility in water): > 500 µM; solubility ([10]; kinetic method, DMSO stock diluted to 500 μM): no precipitate; MIC [11]: 250 µM (≈ 55.9 µg/mL); MIC [12]: 62.5 µM (≈ 14 µg/mL); MIC [13]: 62.5 µM (≈ 14 µg/mL); MIC [14]: 500 µM (≈ 112 µg/mL); MIC [15]: 62.5 µM (≈ 14 µg/mL); MIC [16]: 62.5 µM (≈ 14 µg/mL); MIC [17]: > 500 µM; melting point: 158 to 162 °C; MIC [18]: 31.2 µM (≈ 6.99 µg/mL); MIC [19]: 250 µM (≈ 55.9 µg/mL); MIC [20]: 250 µM (≈ 55.9 µg/mL); MIC [21]: 500 µM (≈ 112 µg/mL); MIC [22]: 125 µM (≈ 28 µg/mL); MIC [23]: 500 µM (≈ 112 µg/mL); MIC [24]: 62.5 µM (≈ 14 µg/mL); MIC [25]: 125 µM (≈ 28 µg/mL)
